These results are taken from paper PMC8350397, “GSK137, a potent small-molecule BCL6 inhibitor with in vivo activity, suppresses antibody responses in mice” (The Journal of Biological Chemistry, 2021).

“Also recorded” adds a separate entry of the source.

The subject of assay [1] is Farage, Karpas422 and VAL cells. Description: Viability and cumulative cell number analysis, Farage, Karpas422, VAL. The class given is cell-based. The following applies: 14 days. Here is the method: Farage cells were cultured in RPMI1640 (1×) + 20% heat-inactivated fetal bovine serum (FBS), ULA in Iscove's modified Dulbecco's medium + 20% FBS, whereas Karpas422 and VAL were cultured in RPMI1640 + 20% heat-inactivated FBS, all with the addition of 1% Glutamax and 1% sodium pyruvate.
Farage, ULA, Karpas422, and VAL cells were seeded into T25 tissue culture flasks in a total volume of 7 mL per flask at densities of 5 x10^4, 7 x10^4, 5 x10^4, and 4 x10^4 cells/mL, respectively and incubated overnight at 37 °C and 5% CO2. Cells were then treated with a 3-point titration of GSK137 (0.1 µM, 1 µM, and 10 µM) throughout a 14-day time course. Treatments with multiple concentrations of BI3802 were also included for comparison (Farage and Karpas422 cells were treated with 0.01 µM, 0.1 µM, and 1 µM BI3802; ULA cells were treated with 0.1 µM and 1 µM BI3802; VAL cells were treated with 0.1 µM, 1 µM, and 10 µM BI3802). Viability (trypan blue exlcusion) and cumulative cell number were measured on a Vi-CELL XR 2.03 (Beckman Coulter, Brea, CA, USA) on day of seeding and on days 3, 6, 10, and 14.

The target of assay [2] is T1, human BCL6 BTB-POZ domain (SMRT co-repressor peptide) (Homo sapiens, UniProt P41182, C67R/C84N/C8Q).
T1 construct: BCL6-Flag-6H-Avi (5-129) C8Q, C67R, C84N proteins; Flag (C); 6H (His6) (C); made in house; host or cells: E. coli
The experiment in a line: BCL6 TR-FRET assay, SMRT peptide displacement. The class given is binding. The protocol:
Human, mouse and rat BCL6-Flag-6H-Avi (5-129) C8Q, C67R, C84N proteins were expressed in E. coli according to standard procedures and purified on Ni-NTA, followed by ion exchange on a Source 30Q column and size exclusion on an Superdex 200 column in a buffer of 20 mM Tris, 250 mM NaCl, 5 mM DTT, 5% glycerol, pH 8.5. All protein purities were estimated to be >90% by SDS-PAGE and the expected masses were confirmed by MS analysis. For TR-FRET assay protein was enzymatically biotinylated by treatment of protein at 100 µM with a 2 fold molar excess of biotin in the presence of 2 mM ATP and 1 µM BirA enzyme in a buffer of 50 mM bicine pH 8.3, 10 mM MgCl2 at 30 °C for 1 hour, followed by extensivedialysis against 50 mM Tris-Cl pH 8.0, 100 mM NaCl, 1 mM DTT using a 3.5 kDa cut-off membrane. Biotinylation was confirmed by MS analysis and concentration was determined by Bradford assay, after which protein was stored in aliquots at -80 °C.
Acceptor-labelled SMRT peptide H2N-[…](D2)-OH was dissolved in water by mass to give a 500 µM stock solution which was stored at -20 °C. Acceptor-labelled NCOR peptide H2N-[…](Alexa Fluor 647)-OH and acceptor-labelled BCOR peptide H2N-[…](Alexa Fluor 647)-OH were dissolved to a nominal concentration of 1 mM in DMSO, and stock solution concentration was determined by absorbance at 650 nm using an extinction coefficient of 270,000 M-1cm^-1. […]

Assay [3] addresses T2, full-length human BCL6 binding to BCL6-binding domain of SMRT (residues 1292-1500) (Homo sapiens, UniProt P41182).
T2 construct: Nano Luciferase fused at the N-terminus of full-length human BCL6; host or cells: HEK293-WT (ATCC CRL-1573)
Description: NanoBRET cell assay in HEK293-WT cells. The class given is cell-based. The text has this:
Plasmids encoding Nano Luciferase fused at the N-terminus of full-length human BCL6 and encoding Halo tag fused at the C-terminus of the BCL6 binding domain (1292-1500) of human SMRT co-repressor were generated under contract by Promega Corporation. HEK293-WT cells were from ATCC (CRL-1573). Fugene HD transfection reagent (catalogue number E2311), HaloTag NanoBRET 618 ligand (catalogue number G980B) and NanoBRET Nano-Glo substrate (catalogue number N157B) were from Promega Ltd.
Assay day 1 (Transient Transfection): 8 x 10^6 HEK293-WT cells per T75 flask (one per compound plate), were transfected with mix comprising 10 µg BCL6 DNA, 10 µg domain SMRT DNA, 1 mL Opti-MEM and 60 µL FuGene (added last), incubating at room temperature for 10 mins prior to addition to flask. The flask was incubated for 20-24 hours at 37 °C and 5% CO2. Assay day 2 (Cell plating): Cells were detached, spun and re-suspended at 2 x 10^5 cells/mL, HaloTag NanoBRET 618 ligand at 1:1000 dilution was added and plated at 40 µL / well with test compounds prepared as above, a duplicate plate without HaloTag ligand was used as background control. The plates were incubated at 37 °C and 5% CO2 overnight (18-24 hours). Assay day 3 (Assay): 1:1000 NanoGlo substrate final was added to all wells, shaken for 30 seconds and luminescence then read on an Envision plate reader. […]
Background: In BRET a luciferase serves as donor, and the signal depends on an acceptor being close.

Turning to `CNC(=O)COc1cc2cc(Nc3nc(N4C[C@H](C)C[C@H](C)C4)ncc3Cl)ccc2n(C)c1=O` [BI3802, reference compound], the cumulative cell number entry in assay [1] is “showed some response”. Besides, in assay [2] (cell-free), the “activity in cell-free assay compared with reported potency” value is reported as “consistent with the previously reported potency”. Further, the “activity in cellular assay compared with reported potency” value in assay [3] (cellular) is “consistent with the previously reported potency”.
In the case of `Cc1ncccc1[C@H]1C[C@@H](c2cccc3nc(N)ccc23)Nc2c(F)cnn21` [GSK137, 5-((5S,7R)-3-Fluoro-7-(2-methylpyridin-3-yl)-4,5,6,7-tetrahydropyrazolo[1,5-a]pyrimidin-5-yl)quinolin-2-amine], the cumulative cell number entry in assay [1] is recorded as “no detectable change”. Further, the cell viability entry in assay [1] (GSK137 0.1-10 μM) is “no major change in cell viability; also recorded: no detectable change”. The IC50 in assay [2] (from pIC50 = 8, read-out: affinity for the BCL6 BTB-POZ domain) is 10 nM; in assay [3] (live cells, full-length human BCL6 / SMRT BBD, read-out: pIC50 Human NanoBret cell (converted)), 50.1 nM.
